Measured values from Sander's compilation of Henry's law constants.

Experiments:
[1] = Henry solubility constant Hcp at 295 K (mol/(m3 Pa)); conditions: reference: de Wolf and Lieder (1998)
[2] = Henry solubility constant Hcp at 298.15 K (mol/(m3 Pa))
[3] = Henry solubility constant Hcp at 293 K (mol/(m3 Pa))
[4] = Henry solubility constant Hcp at 291 K (mol/(m3 Pa)); conditions: reference: Treves et al. (2000)
[5] = Henry solubility constant Hcp at 288 K (mol/(m3 Pa)); conditions: reference: Jones (1911)
[6] = Henry solubility constant Hcp at 278 K (mol/(m3 Pa))
[7] = Henry solubility constant Hcp at 296 K (mol/(m3 Pa))
[8] = Henry solubility constant Hcp at 310 K (mol/(m3 Pa)); conditions: reference: McIntosh and Heffron (2000)
[9] = reference: Warner et al. (1980)
[10] = reference: Yurteri et al. (1987)
[11] = reference: Bissonette et al. (1990)
[12] = reference: Hartkopf and Karger (1973)
[13] = reference: Mackay et al. (1979)
[14] = reference: Ramachandran et al. (1996)

With `Clc1cccc(Cl)c1` [1,3-dichlorobenzene] the “Henry solubility constant Hcp at 295 K” value [1] was 0.0037, the “Henry solubility constant Hcp” value ([2]; reference: Li et al. (2008)) was 0.0029 and the “Henry solubility constant Hcp” value [2, 9] was 0.0038.
In the case of `Clc1ccccc1` [chlorobenzene], the “Henry solubility constant Hcp at 295 K” value [1] is reported as 0.0034, the “Henry solubility constant Hcp at 293 K” value [3, 10] is reported as 0.0031 and the “Henry solubility constant Hcp” value [2, 11] is reported as 0.0024. The “Henry solubility constant Hcp” value ([2]; reference: Cooling et al. (1992)) was 0.003, the “Henry solubility constant Hcp” value ([2]; reference: Ervin et al. (1980)) was 0.0029 and the “Henry solubility constant Hcp” value ([2]; reference: Ettre et al. (1993)) was 0.0031. The “Henry solubility constant Hcp” value [2, 12] was 0.0028, the “Henry solubility constant Hcp” value ([2]; reference: Khalfaoui and Newsham (1994b)) was 0.003 and the “Henry solubility constant Hcp” value ([2]; reference: Lau et al. (2010)) was 0.0017. The “Henry solubility constant Hcp” value ([2]; reference: Lei et al. (2004)) was 0.0015, the “Henry solubility constant Hcp” value ([2]; reference: Li et al. (2008)) was 0.0024 and the “Henry solubility constant Hcp” value [2, 13] was 0.0026. The “Henry solubility constant Hcp” value ([2]; reference: Park et al. (1997)) was 0.0019, the “Henry solubility constant Hcp” value [2, 14] was 0.0029 and the “Henry solubility constant Hcp” value [2, 9] was 0.0025.
For `CCC(CO)O[N+](=O)[O-]` (configuration not stated) [2-nitrooxy-1-butanol], the “Henry solubility constant Hcp at 291 K” value [4] was 88.
In the case of `BrBr` [bromine (molecular)], the “Henry solubility constant Hcp at 288 K” value [5] is reported as 0.014, the “Henry solubility constant Hcp at 293 K” value ([3]; reference: Jenkins and King (1965)) is reported as 0.0096 and the “Henry solubility constant Hcp” value ([2]; reference: Hill et al. (1968)) is reported as 0.0068. The “Henry solubility constant Hcp” value ([2]; reference: Kelley and Tartar (1956)) was 0.007, the “Henry solubility constant Hcp” value ([2]; reference: Winkler (1899)) was 0.0079 and the “Henry solubility constant Hcp” value ([2]; reference: Winkler (1906)) was 0.0078.
In the case of `O=[N+]([O-])OCCCCO` [4-nitrooxy-1-butanol], the “Henry solubility constant Hcp at 291 K” value [4] is reported as 290.
For `CCC(O)CO[N+](=O)[O-]` (configuration not stated) [1-nitrooxy-2-butanol], the “Henry solubility constant Hcp at 291 K” value [4] was 89.
For `O=COO` [methanoic peroxyacid], the “Henry solubility constant Hcp at 278 K” value ([6]; reference: Sauer (1997)) was 29.
In the case of `O=C(Cl)C(Cl)(Cl)Cl` [trichloroacetylchloride], the “Henry solubility constant Hcp at 278 K” value ([6]; reference: De Bruyn et al. (1995a)) is reported as 0.02, the “Henry solubility constant Hcp” value ([2]; reference: George et al. (1994a)) is reported as 0.02 and the “Henry solubility constant Hcp” value ([2]; reference: Mirabel et al. (1996)) is reported as 0.02.
For `Cc1ccccc1` [methylbenzene], the “Henry solubility constant Hcp at 296 K” value ([7]; reference: Anderson (1992)) was 0.0015, the “Henry solubility constant Hcp at 296 K” value ([7]; reference: David et al. (2000)) was 0.0015 and the “Henry solubility constant Hcp at 296 K” value ([7]; reference: Miller and Stuart (2000)) was 0.0016. The “Henry solubility constant Hcp at 295 K” value [1] was 0.002, the “Henry solubility constant Hcp at 310 K” value [8] was 0.00085 and the “Henry solubility constant Hcp at 293 K” value ([3]; reference: Yu (1992)) was 0.0037. For the same compound, the “Henry solubility constant Hcp at 293 K” value [3, 10] was 0.0017, the “Henry solubility constant Hcp” value ([2]; reference: Allen et al. (1998)) was 0.0015 and the “Henry solubility constant Hcp” value ([2]; reference: Bakierowska and Trzeszczyński (2003)) was 0.0017. For the same compound, the “Henry solubility constant Hcp” value ([2]; reference: Bierwagen and Keller (2001)) was 0.0017, the “Henry solubility constant Hcp” value [2, 11] was 0.0014 and the “Henry solubility constant Hcp” value ([2]; reference: Bobadilla et al. (2003)) was 0.0021. The “Henry solubility constant Hcp” value ([2]; reference: Brown and Wasik (1974)) was 0.0016, the “Henry solubility constant Hcp” value ([2]; reference: Ervin et al. (1980)) was 0.0015 and the “Henry solubility constant Hcp” value ([2]; reference: Ettre et al. (1993)) was 0.0015. For the same compound, the “Henry solubility constant Hcp” value ([2]; reference: Garbarini and Lion (1985)) was 0.0015, the “Henry solubility constant Hcp” value ([2]; reference: Görgényi et al. (2002)) was 0.0015 and the “Henry solubility constant Hcp” value [2, 12] was 0.002. The “Henry solubility constant Hcp” value ([2]; reference: Keeley et al. (1988)) was 0.0016, the “Henry solubility constant Hcp” value ([2]; reference: Kish et al. (2013)) was 0.0015 and the “Henry solubility constant Hcp” value ([2]; reference: Kutsuna and Kaneyasu (2021)) was 0.0015. For the same compound, the “Henry solubility constant Hcp” value ([2]; reference: Lau et al. (2010)) was 0.0013, the “Henry solubility constant Hcp” value ([2]; reference: Lee et al. (2013)) was 0.0017 and the “Henry solubility constant Hcp” value ([2]; reference: Lei et al. (2004)) was 0.0014. The “Henry solubility constant Hcp” value ([2]; reference: Li et al. (2008)) was 0.0015, the “Henry solubility constant Hcp” value ([2]; reference: Lin and Chou (2006)) was 0.0015 and the “Henry solubility constant Hcp” value ([2]; reference: Lodge and Danso (2007)) was 0.0014. For the same compound, the “Henry solubility constant Hcp” value [2, 13] was 0.0015, the “Henry solubility constant Hcp” value ([2]; reference: Nielsen et al. (1994)) was 0.0016 and the “Henry solubility constant Hcp” value ([2]; reference: Park et al. (1997)) was 0.0013. For the same compound, the “Henry solubility constant Hcp” value ([2]; reference: Peng and Wan (1997)) was 0.0017, the “Henry solubility constant Hcp” value ([2]; reference: Peng and Wan (1998)) was 0.0021 and the “Henry solubility constant Hcp” value ([2]; reference: Perlinger et al. (1993)) was 0.0015. The “Henry solubility constant Hcp” value [2, 14] was 0.0015, the “Henry solubility constant Hcp” value ([2]; reference: Robbins et al. (1993)) was 0.0015 and the “Henry solubility constant Hcp” value ([2]; reference: Sanemasa et al. (1981)) was 0.0016. For the same compound, the “Henry solubility constant Hcp” value ([2]; reference: Schoene and Steinhanses (1985)) was 0.0012, the “Henry solubility constant Hcp” value ([2]; reference: Sieg et al. (2009)) was 0.0015 and the “Henry solubility constant Hcp” value ([2]; reference: Tsibul’skii et al. (1979)) was 0.0015. For the same compound, the “Henry solubility constant Hcp” value ([2]; reference: Turner et al. (1996)) was 0.0014, the “Henry solubility constant Hcp” value ([2]; reference: Vane and Giroux (2000)) was 0.0019 and the “Henry solubility constant Hcp” value ([2]; reference: Vitenberg et al. (1975)) was 0.0019. For the same compound, the “Henry solubility constant Hcp” value [2, 9] was 0.0017 and the “Henry solubility constant Hcp” value ([2]; reference: Wasik and Tsang (1970)) was 0.0017.
For `Brc1ccccc1` [bromobenzene], the “Henry solubility constant Hcp at 295 K” value [1] was 0.005 and the “Henry solubility constant Hcp” value ([2]; reference: Lau et al. (2010)) was 0.0039.
